Measured values taken from patent publication US20130131075A1, “NEW COMPOUNDS” (Boehringer Ingelheim International GmbH, priority 2009, published 2013).

Target: T1, cynomolgus BK1-receptor (Macaca fascicularis, UniProt Q3BCU0)
T1 construct: expressed in transfected cells; host or cells: CHO cells (homogenate)
T1 sequence (Q3BCU0 1-352): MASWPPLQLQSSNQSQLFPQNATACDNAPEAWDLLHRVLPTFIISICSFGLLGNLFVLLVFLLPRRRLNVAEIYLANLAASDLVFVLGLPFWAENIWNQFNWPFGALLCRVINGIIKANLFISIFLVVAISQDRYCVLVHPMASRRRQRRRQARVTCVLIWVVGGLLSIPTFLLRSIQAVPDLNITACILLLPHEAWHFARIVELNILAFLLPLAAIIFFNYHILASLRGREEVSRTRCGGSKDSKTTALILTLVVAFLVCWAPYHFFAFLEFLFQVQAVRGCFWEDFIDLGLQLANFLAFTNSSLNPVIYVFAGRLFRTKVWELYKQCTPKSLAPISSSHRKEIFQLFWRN
Assay: cynoBK1-receptor binding assay
Settings: CHO cells expressing cynomolgus BK1-receptor, radioligand kallidine (DesArg10,Leu9)
Method in brief: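 Ki derived by non-linear fitting of concentration-binding curves. Test compound competed against 0.5 to 5.0 nM tritiated kallidine (DesArg10,Leu9) on cynomolgus BK1-CHO cell homogenate (50 to 250 μg protein/assay) for 60-180 minutes at ambient temperature, then filtered. 1.0 μM kallidine (DesArg10) set non-specific binding.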

Row | Structure (SMILES) | Ki [µM]
1 | CNc1cncc(C(=O)N[C@@]2(C(=O)NCc3ncc(Nc4c(F)cccc4C(F)(F)F)cc3Cl)CCOC2)c1 [(259)] | 0.394
2 | O=C(CC(F)(F)F)N[C@@]1(C(=O)NCc2ncc(Nc3c(F)cccc3C(F)(F)F)cc2Cl)CCOC1 [(261)] | 0.456
3 | CN(C)c1ccc(C(=O)NC2(C(=O)NCc3ccc(Nc4ccc(Cl)cc4C(F)(F)F)cn3)CC2)cn1 [(263)] | 0.485
4 | Cn1cnc2cc(C(=O)NC3(C(=O)NCc4ccc(Nc5ccc(Cl)cc5C(F)(F)F)cn4)CC3)ccc21 [(264)] | 0.06
5 | Nc1nc2cc(C(=O)NC3(C(=O)NCc4ccc(Nc5ccc(Cl)cc5C(F)(F)F)cn4)CC3)ccc2[nH]1 [(265)] | 0.075
6 | O=C(NC1(C(=O)NCc2ccc(Nc3ccc(Cl)cc3C(F)(F)F)cn2)CC1)c1ccc2[nH]cnc2c1 [(266)] | 0.078
7 | CN(C)c1ccc(C(=O)NC2(C(=O)NCc3ccc(Nc4ccc(Br)cc4C(F)(F)F)cn3)CC2)cn1 [(268)] | 0.281
8 | CNc1cncc(C(=O)N[C@@]2(C(=O)NCc3ncc(Nc4ccc(F)cc4C(F)(F)F)cc3Cl)CCOC2)c1 [(269)] | 0.047
9 | CNc1cncc(C(=O)NC2(C(=O)NCc3ccc(Nc4ccc(F)cc4C(F)(F)F)cn3)CC2)c1 [(270)] | 0.051
10 | Nc1cncc(C(=O)NC2(C(=O)NCc3ccc(Nc4ccccc4C(F)(F)F)cc3)COC2)c1 [(273)] | 0.141
11 | CC(=O)Nc1cncc(C(=O)NC2(C(=O)NCc3ccc(Nc4ccc(Cl)cc4C(F)(F)F)cn3)CC2)c1 [(275)] | 0.405
12 | Nc1ccc(C(=O)N[C@@]2(C(=O)NCc3ncc(Nc4ccc(Cl)cc4C(F)(F)F)cc3F)CCOC2)cn1 [(293)] | 0.065
13 | Nc1ccc(C(=O)N[C@@]2(C(=O)NCc3ncc(Nc4ccc(Cl)cc4C(F)(F)F)cc3Cl)CCOC2)cn1 [(297)] | 0.059
14 | O=C(N[C@@]1(C(=O)NCc2ccc(Nc3ccc(F)cc3C(F)(F)F)cc2)CCOC1)c1cncs1 [(299)] | 0.222
15 | Cc1ncc(C(=O)NC2(C(=O)NCc3ccc(Nc4ccc(F)cc4C(F)(F)F)cn3)CC2)s1 [(303)] | 0.082
16 | CNc1ncc(C(=O)N[C@@]2(C(=O)NCc3ccc(Nc4ccc(F)cc4C(F)(F)F)cn3)CCOC2)cn1 [(304)] | 0.135

Row | Structure (SMILES) | Ki [µM]
17 | CNc1cncc(C(=O)N[C@@]2(C(=O)NCc3ccc(Nc4ccc(F)cc4C(F)(F)F)cc3)CCOC2)c1 [(305)] | 0.076
18 | Cc1ncc(C(=O)N[C@@]2(C(=O)NCc3ccc(Nc4ccc(F)cc4C(F)(F)F)cn3)CCOC2)cn1 [(307)] | 0.054
19 | Cc1cncc(C(=O)N[C@@]2(C(=O)NCc3ccc(Nc4ccc(F)cc4C(F)(F)F)cc3)CCOC2)c1 [(308)] | 0.427
20 | Nc1ccc(C(=O)N[C@@]2(C(=O)NCc3ccc(Nc4ccc(F)cc4C(F)(F)F)cc3)CCOC2)cn1 [(309)] | 0.184
21 | CNc1cncc(C(=O)N[C@@]2(C(=O)NCc3ccc(Nc4ccc(F)cc4C(F)(F)F)cn3)CCOC2)c1 [(311)] | 0.349
22 | Cc1ccc(C(=O)NC2(C(=O)NCc3ccc(Nc4ccc(Cl)cc4C(F)(F)F)cn3)CC2)cn1 [(312)] | 0.057
23 | COc1cncc(C(=O)NC2(C(=O)NCc3ccc(Nc4ccc(Cl)cc4C(F)(F)F)cn3)CC2)c1 [(313)] | 0.095
24 | COc1cncc(C(=O)NC2(C(=O)NCc3ccc(Nc4ccc(Br)cc4C(F)(F)F)cn3)CC2)c1 [(316)] | 0.057
25 | Nc1ccc(C(=O)N[C@@]2(C(=O)NCc3ccc(Nc4ccc(Cl)cc4C(F)(F)F)cc3)CCOC2)cn1 [(318)] | 0.316
26 | CNc1cncc(C(=O)N[C@@]2(C(=O)NCc3ncc(Nc4ccc(Cl)cc4C(F)(F)F)cc3F)CCOC2)c1 [(319)] | 0.058
27 | Nc1cncc(C(=O)N[C@@]2(C(=O)NCc3ccc(Nc4ccc(Cl)cc4C(F)(F)F)cc3)CCOC2)c1 [(321)] | 0.057
28 | CNc1ncc(C(=O)N[C@@]2(C(=O)NCc3ccc(Nc4ccc(Cl)cc4C(F)(F)F)cc3)CCOC2)cn1 [(323)] | 0.069
29 | O=C(NC1(C(=O)NCc2ccc(Nc3c(F)cc(Br)cc3Cl)cn2)CC1)c1cncnc1 [(325)] | 0.374
30 | O=C(NC1(C(=O)NCc2ccc(Nc3c(F)cccc3Br)cn2)CC1)c1cncnc1 [(326)] | 0.504
31 | COc1ncc(C(=O)N[C@@]2(C(=O)NCc3ccc(Nc4ccc(F)cc4C(F)(F)F)cn3)CCOC2)cn1 [(327)] | 0.089

The next lines start with the values.

Row | Ki [µM] | Structure (SMILES)
32 | 0.043 | CNc1cncc(C(=O)N[C@@]2(C(=O)NCc3ncc(Nc4ccc(F)cc4C(F)(F)F)cc3F)CCOC2)c1 [(260)]
33 | 0.037 | Nc1cc(C(=O)NC2(C(=O)NCc3ccc(Nc4ccc(F)cc4C(F)(F)F)cn3)CC2)cnn1 [(262)]
34 | 0.0055 | Cc1ncc(C(=O)N[C@@]2(C(=O)NCc3ncc(Nc4ccc(F)cc4C(F)(F)F)cc3F)CCOC2)cn1 [(267)]
35 | 0.017 | Nc1cncc(C(=O)N[C@@]2(C(=O)NCc3ncc(Nc4ccc(Cl)cc4C(F)(F)F)cc3F)CCOC2)c1 [(271)]
36 | 0.035 | CNc1cncc(C(=O)NC2(C(=O)NCc3ncc(Nc4c(F)cccc4C(F)(F)F)cc3F)CC2)c1 [(272)]
37 | 0.004 | Cc1ncc(C(=O)N[C@@]2(C(=O)NCc3ccc(Nc4ccc(F)cc4C(F)(F)F)cc3F)CCOC2)cn1 [(274)]
38 | 0.017 | CNc1ncc(C(=O)N[C@@]2(C(=O)NCc3ncc(Nc4ccc(Cl)cc4C(F)(F)F)cc3F)CCOC2)cn1 [(276)]
39 | 0.01 | Cc1ncc(C(=O)N[C@@]2(C(=O)NCc3ncc(Nc4ccc(Cl)cc4C(F)(F)F)cc3F)CCOC2)cn1 [(277)]
40 | 0.016 | O=C(N[C@@]1(C(=O)NCc2ncc(Nc3ccc(Cl)cc3C(F)(F)F)cc2Cl)CCOC1)c1cncnc1 [(278)]
41 | 0.0055 | Cc1ncc(C(=O)N[C@@]2(C(=O)NCc3ccc(Nc4ccccc4C(F)(F)F)cc3F)CCOC2)cn1 [(279)]
42 | 0.025 | CNc1cncc(C(=O)NC2(C(=O)NCc3ccc(Nc4ccc(Cl)cc4C(F)(F)F)cn3)CC2)c1 [(280)]
43 | 0.021 | CNc1ncc(C(=O)N[C@@]2(C(=O)NCc3ncc(Nc4ccc(Cl)cc4C(F)(F)F)cc3Cl)CCOC2)cn1 [(281)]
44 | 0.0079 | Cc1ncc(C(=O)N[C@@]2(C(=O)NCc3ncc(Nc4ccc(Cl)cc4C(F)(F)F)cc3Cl)CCOC2)cn1 [(282)]
45 | 0.0013 | Cc1ncc(C(=O)NC2(C(=O)NCc3ccc(Nc4ccc(F)cc4C(F)(F)F)cc3F)CC2)cn1 [(283)]
46 | 0.027 | Nc1cncc(C(=O)N[C@@]2(C(=O)NCc3ncc(Nc4ccc(Cl)cc4C(F)(F)F)cc3Cl)CCOC2)c1 [(285)]
47 | 0.036 | O=C(N[C@@]1(C(=O)NCc2ncc(Nc3ccc(Cl)cc3C(F)(F)F)cc2Cl)CCOC1)c1cncc(O)c1 [(286)]
48 | 0.011 | O=C(N[C@@]1(C(=O)NCc2ccc(Nc3ccc(F)cc3C(F)(F)F)cc2)CCOC1)c1cncnc1 [(287)]
49 | 0.0091 | Cc1ncc(C(=O)N[C@@]2(C(=O)NCc3ccc(Nc4ccc(F)cc4C(F)(F)F)cc3)CCOC2)cn1 [(288)]
50 | 0.021 | CNc1ncc(C(=O)N[C@@]2(C(=O)NCc3ccc(Nc4ccc(F)cc4C(F)(F)F)cc3)CCOC2)cn1 [(289)]
51 | 0.046 | Nc1cncc(C(=O)N[C@@]2(C(=O)NCc3ccc(Nc4c(F)cccc4C(F)(F)F)cc3F)CCOC2)c1 [(290)]

Row | Ki [µM] | Structure (SMILES)
52 | 0.04 | Cc1ncc(C(=O)N[C@@]2(C(=O)NCc3ccc(Nc4c(F)cccc4C(F)(F)F)cc3F)CCOC2)cn1 [(291)]
53 | 0.0072 | Cc1ncc(C(=O)N[C@@]2(C(=O)NCc3ncc(Nc4ccccc4C(F)(F)F)cc3Cl)CCOC2)cn1 [(292)]
54 | 0.0012 | Cc1ncc(C(=O)NC2(C(=O)NCc3ccc(Nc4ccccc4C(F)(F)F)cc3F)CC2)cn1 [(294)]
55 | 0.031 | N#Cc1ccccc1Nc1cnc(CNC(=O)C2(NC(=O)c3cncnc3)CC2)c(F)c1 [(295)]
56 | 0.028 | N#Cc1ccccc1Nc1ccc(CNC(=O)C2(NC(=O)c3cncnc3)CC2)c(F)c1 [(296)]
57 | 0.0007 | Cc1ncc(C(=O)NC2(C(=O)NCc3ncc(Nc4ccc(F)cc4C(F)(F)F)cc3F)CC2)cn1 [(298)]
58 | 0.045 | COc1ncc(C(=O)N[C@@]2(C(=O)NCc3ccc(Nc4ccc(F)cc4C(F)(F)F)cc3)CCOC2)cn1 [(300)]
59 | 0.0011 | Cc1ncc(C(=O)NC2(C(=O)NCc3ncc(Nc4ccccc4C(F)(F)F)cc3Cl)CC2)cn1 [(301)]
60 | 0.042 | Cc1cncc(C(=O)NC2(C(=O)NCc3ccc(Nc4ccc(F)cc4C(F)(F)F)cn3)CC2)c1 [(302)]
61 | 0.002 | Cc1cc(Nc2ccc(F)cc2C(F)(F)F)cnc1CNC(=O)C1(NC(=O)c2cncnc2)CC1 [(306)]
62 | 0.039 | CC(C)c1ncc(C(=O)N[C@@]2(C(=O)NCc3ccc(Nc4ccc(F)cc4C(F)(F)F)cc3)CCOC2)cn1 [(310)]
63 | 0.015 | COc1ncc(C(=O)N[C@@]2(C(=O)NCc3ncc(Nc4ccc(Cl)cc4C(F)(F)F)cc3F)CCOC2)cn1 [(314)]
64 | 0.04 | Cc1ccc(C(=O)NC2(C(=O)NCc3ccc(Nc4ccc(Br)cc4C(F)(F)F)cn3)CC2)cn1 [(315)]
65 | 0.03 | Cc1ncc(C(=O)N[C@@]2(C(=O)NCc3ccc(Nc4ccc(Cl)cc4C(F)(F)F)cc3)CCOC2)cn1 [(317)]
66 | 0.019 | Nc1cncc(C(=O)N[C@@]2(C(=O)NCc3ncc(Nc4ccccc4C(F)(F)F)cc3F)CCOC2)c1 [(320)]
67 | 0.022 | Cc1cc(Nc2ccc(F)cc2C(F)(F)F)cnc1CNC(=O)[C@]1(NC(=O)c2cncnc2)CCOC1 [(324)]
68 | 0.033 | CCNc1ncc(C(=O)N[C@@]2(C(=O)NCc3ccc(Nc4ccc(F)cc4C(F)(F)F)cc3)CCOC2)cn1 [(328)]
69 | 0.024 | CCNc1ccc(C(=O)NC2(C(=O)NCc3ccc(Nc4ccc(Cl)cc4C(F)(F)F)cn3)CC2)cn1 [(329)]
70 | 0.035 | CCCNc1ccc(C(=O)NC2(C(=O)NCc3ccc(Nc4ccc(Cl)cc4C(F)(F)F)cn3)CC2)cn1 [(330)]
